{"source": "patent US20120283174A1", "about": "“ANTIBIOFILM GLYCOPEPTIDES” (ORAL HEALTH AUSTRALIA PTY. LTD., priority 2009, published 2012)", "key": {"[1]": {"system": "S. mutans biofilms", "experiment": "Flow cell culture and CSLM analysis of 16 h S. mutans biofilms, single 10 min treatment", "assay_type": "cell-based, Streptococcus mutans Ingbritt", "protocol": "(§1) Flowcell culture and CSLM analysis of monospecific biofilm The biofilm culture of S. mutans in flow cells was similar to that described by Wen et al. (2006) with several modifications. A 3-channel flow cell system (Stovall Life Science, Greensboro, N.C., USA) was modified with stopcocks for inoculation, testing and staining of the bacterial biofilms. All parts were assembled and 0.5% sodium hypochlorite was pumped in and left overnight. Sterile water (200 mL) was then used to flush the system prior to the addition of growth medium. The system was inoculated with 1 mL of an exponentially growing S. mutans Ingbritt culture diluted to a cell density of 1×10^7 cells/mL. The system was incubated for 1 h prior to constant flow (0.2 mL/min) of 25% ASM (ASM; 2.5 g/L type II porcine gastric mucin, 2.0 g/L bacteriological peptone, 2.0 g/L tryptone, 1.0 g/L yeast extract, 0.35 g/L NaCl, 0.2 g/L KCl, 0.2 g/L CaCl2 and 1 mg/L haemin, pH 7.0) supplemented with 2.5 mM DTT and 0.5 g/L sucrose.. After 16 h, 1 mL of purified glycosylated x-casein(106-169) (KCG); KCGP(f106-169); KCGPZ(f106-169) (KCGPZ(f106-169); 10 mg/mL KCGP(f106-169) and 20 mM ZnCl2); 20 mM ZnCl2; 0.1% chlorhexidine digluconate or sterile water was injected into each channel of the system and incubated for 10 min, the flow of 25% ASM was then resumed for 10 min prior to staining. For determination of the effects of treatments on early stage biofilms the system was incubated for 6 h after inoculation, treated with 1 mL of test solutions for 10 min and the flow of 25% ASM resumed for another 16 h to observe recovery of the biofilm. BacLight LIVE/DEAD stain (Molecular Probes) was then used to stain the biofilm in situ.\n(§2) Confocal laser scanning microscopy (CLSM) of the bacterial biofilms was carried out on a Meta 510 Confocal Microscope with an inverted stage (Zeiss). Horizontal (xy) optodigital sections, each 2 μm thick over the entire thickness of the biofilm (z) were imaged using a 63× objective at 512×512 pixel (0.28 μm per pixel), with each frame at 143.86 μm (x)×143.86 μm (y). To determine reproducibility across the biofilm 5 images at random positions were obtained at wavelengths of 488 nm and 568 nm for each channel and 3 biological replicates were used. All images obtained were analysed using Comstat software (Heydorn et al., 2000).\n(§3) Data treatment and statistical analyses. The biometric data were analyzed using a two-factor analysis of variance (ANOVA) model with treatment included as a fixed factor and experiment as a random blocking factor to investigate the effect of KCGP(f106-169), KCG, KCGPZ(f106-169), Zinc and chlorhexidine on established biofilms. If treatment differences were significant, post hoc comparisons of treatment differences were performed using the Tukey posttest. Model fits were checked by residual plots, normality was investigated using normal probability plots and the Kolmogorov-Smirnov test and homogeneity of error variances was tested using Levene's test. When the error variances were heterogeneous a natural logarithm transformation of the data was used to stabilize the treatment group variances. Treatments were then compared using ANOVA on the transformed data. The biometric data obtained from the experiments investigating the effect of KCGPZ(f106-169) on 6 h S. mutans biofilms was analysed using a Paired Samples T-Test. All analyses were conducted using SPSS statistical software (version 17.0, SPSS Inc., Chicago, Ill.)."}, "[2]": {"system": "S. sanguis cells grown as a biofilm", "conditions": "0.2% w/v, 5 minute exposure, biofilm in a CDFF; cited from earlier work"}, "[3]": {"system": "S. mutans biofilm", "experiment": "Early stage (6 h) S. mutans flow cell biofilms, 10 min treatment, 16 h recovery, CSLM", "assay_type": "cell-based, Streptococcus mutans Ingbritt", "set-up": "key to Surface to biovolume ratio / Roughness coefficient (dimensionless, range: zero-infinity) / Biovolume / Average thickness: —: No significant amount of biofilms detected after 16 h recovery", "conditions": "6 h biofilm", "protocol": "as §1, §2, §3"}, "[4]": {"system": "six species oral biofilm", "conditions": "0.2% w/v, 1 and 5 minutes of exposure; cited from earlier work"}, "[5]": {"conditions": "0.12% mouthwash, over a 12 week period; cited from earlier work"}, "[6]": {"conditions": "0.1% (Table 1), 16 h biofilm, single 10 min treatment"}, "[7]": {"conditions": "0.1%, 16 h biofilm, single 10 min treatment"}, "[8]": {"conditions": "0.1%, 16 h biofilm, single 10 min treatment, listed as Chlorhexidine digluconate"}, "[9]": {"conditions": "0.1% chlorhexidine digluconate, 10 min treatment"}}, "note": "Marks after values point to notes of the source that are not given here.", "data": [{"compound": "[H]/N=C(\\N/C(=N/[H])NCCCCCCNC(=N)NC(=N)Nc1ccc(Cl)cc1)Nc1ccc(Cl)cc1", "note": "[Chlorhexidine, chlorhexidine digluconate]", "values": [{"measurement": "reduction of average thickness", "setting": "[1]; [6]", "value": 59, "unit": "%"}, {"measurement": "reduction of total biomass", "setting": "[1]; [6]", "value": 53, "unit": "%"}, {"measurement": "Average thickness", "setting": "[1]; [7]", "value": "3.02 ± 0.66^a μm"}, {"measurement": "Biovolume", "setting": "[1]; [7]", "value": "1.82 ± 0.60^a μm^3/μm^2"}, {"measurement": "Roughness coefficient (dimensionless, range: zero-infinity)", "setting": "[1]; [7]", "value": "1.51 ± 0.12^a"}, {"measurement": "Surface to biovolume ratio", "setting": "[1]; [7]", "value": "2.36 ± 1.24^ab μm^2/μm^3"}, {"measurement": "Average thickness", "setting": "[1]; [8]", "value": "Significant reduction"}, {"measurement": "Biovolume", "setting": "[1]; [8]", "value": "Significant reduction"}, {"measurement": "Surface to biovolume ratio", "setting": "[1]; 0.1%, 16 h biofilm, single 10 min treatment, listed as chlorhexidine", "value": "nonsignificant differences"}, {"measurement": "dead S. mutans cells by propidium iodide staining (BacLight Live/Dead, FIG. 5)", "setting": "[1]; 16 h biofilm after treatment, qualitative", "value": "qualitatively higher number of dead S. mutans cells compared with KCG or KCGPZ(f106-169)"}, {"measurement": "disruption / inhibition of S. mutans biofilms, comparison between treatments in words", "setting": "[1]; 16 h biofilm, single 10 min treatment, concentrations as in Table 1", "value": "not significantly different to those produced by ZnCl2, 2.4 mg/mL purified KCG or 10 mg/mL KCGP(f106-169)"}, {"measurement": "reduction in viable S. sanguis cells", "setting": "[2]", "value": "~2", "unit": "log10"}, {"measurement": "Average thickness", "setting": "[3]; [9]", "value": "—^b"}, {"measurement": "Biovolume", "setting": "[3]; [9]", "value": "—^b"}, {"measurement": "Roughness coefficient (dimensionless, range: zero-infinity)", "setting": "[3]; [9]", "value": "—^b"}, {"measurement": "Surface to biovolume ratio", "setting": "[3]; [9]", "value": "—^b"}, {"measurement": "effect on early S. mutans biofilms in words", "setting": "[3]; single 10 min treatment", "value": "substantially reducing the biofilms, which had not recovered after 16 h"}, {"measurement": "effect on six species oral biofilm", "setting": "[4]", "value": "no significant difference"}, {"measurement": "reduction of gingival inflammation", "setting": "[5]", "value": 25, "unit": "%"}, {"measurement": "reduction of plaque accumulation", "setting": "[5]", "value": 28, "unit": "%"}]}, {"compound": "[Cl-].[Cl-].[Zn+2]", "note": "[ZnCl2]", "values": [{"measurement": "Roughness coefficient (dimensionless, range: zero-infinity)", "setting": "[1]; 20 mM, 16 h biofilm, single 10 min treatment", "value": "1.54 ± 0.07^ab"}]}]}
